Reference: patent US20130252816A1, “HERBICIDAL COMPOSITION AND USE THEREOF” (Syngenta Crop Protection LLC, priority 2010, published 2013)

What was measured:
Assay type in all cases: in vivo
Stellaria media [1] = test: Example 2: alcohol ethoxylate adjuvants without glyphosate, visual % damage, tracksprayer 300 l/ha
Source text: (§1) The effect of different types of alcohol ethoxylate (branched—Genapol X-series, and unbranched—Genapol O-series, differing degrees of ethoxylation, see Table 3 below for more details), on unwanted vegetation (broadleaf weed and grass species), in the absence of glyphosate, was investigated and compared to untreated (water only) control weeds.
(§2) Troughs (measuring 16 cm by 13 cm by 5 cm) were filled with local field soil. Seeds of Veronica persica, Stellaria media, Trifolium repens and Poa annua were sown 24 days before application of test samples. Plants were grown in the glasshouse at 18 to 20° C. and 60% relative humidity. Application of alcohol ethoxylate test samples was carried out using a tracksprayer, spraying at a rate of 300 l/ha. Plants were kept in glasshouse and visual assessment of the estimated percentage damage to the plant was carried out 1, 7, and 14 days from application.
(§3) Damage was assessed as wilting, desiccation or any other kind of visual injury in comparison to the untreated control (water only).

Poa annua [2] = test: as above
Source text: as §1, §2, §3

Trifolium repens = test: as above
Source text: as §1, §2, §3

Veronica persica = test: as above
Source text: as §1, §2, §3

Taraxacum officinale = test: Example 1: adjuvants alone, visual % damage, pots in glasshouse
Experimental: (§4) The effect of different adjuvants (see Table 1 below) on the growth of broadleaf weed and grass species was investigated and compared to untreated (water only) control weeds.
(§5) Plates, each with 48 pots measuring 2.7 cm diameter and 5 cm deep, were filled with TKS1 growing media (Floragard, Germany). Seeds of Taraxacum officinale, Stellaria media or Poa annua were sown on the surface (10 to 20 per pot). Plants were grown in glasshouse at a temperature of 18 to 20° C. and at 60% relative humidity.
(§6) Plants were treated 15 (Stellaria, Poa) and 34 (Taraxacum) days after sowing with 60 μl of a 1.25, 2.5, 5 and 10% (w/v) solution of adjuvant using a hand airbrush.
(§7) Visual assessment of the percentage damage to the plant was carried out 1 day and 6 days from application.
as §3

Stellaria media [3] = test: as above
Experimental: as §4, §5, §6, §7, §3

Poa annua [4] = test: as above
Experimental: as §4, §5, §6, §7, §3

Oleyl alcohol polyglycol ether with 5 moles of ethoxylation [GenapolO050]
mean % damage 1 daa Stellaria media (Stellaria media [1]; adjuvant 1% w/v): 0% | mean % damage 7 daa Stellaria media (Stellaria media [1]; adjuvant 1% w/v): 5% | mean % damage 14 daa Stellaria media (Stellaria media [1]; adjuvant 1% w/v): 0% | mean % damage 1 daa Stellaria media (Stellaria media [1]; adjuvant 1.5% w/v): 0% | mean % damage 7 daa Stellaria media (Stellaria media [1]; adjuvant 1.5% w/v): 5% | mean % damage 14 daa Stellaria media (Stellaria media [1]; adjuvant 1.5% w/v): 5% | mean % damage 1 daa Stellaria media (Stellaria media [1]; adjuvant 2% w/v): 0% | mean % damage 7 daa Stellaria media (Stellaria media [1]; adjuvant 2% w/v): 10% | mean % damage 14 daa Stellaria media (Stellaria media [1]; adjuvant 2% w/v): 5% | mean % damage 1 daa Stellaria media (Stellaria media [1]; adjuvant 2.5% w/v): 0% | mean % damage 7 daa Stellaria media (Stellaria media [1]; adjuvant 2.5% w/v): 10% | mean % damage 14 daa Stellaria media (Stellaria media [1]; adjuvant 2.5% w/v): 10% | mean % damage 1 daa Poa annua (Poa annua [2]; adjuvant 1% w/v): 0% | mean % damage 7 daa Poa annua (Poa annua [2]; adjuvant 1% w/v): 10% | mean % damage 14 daa Poa annua (Poa annua [2]; adjuvant 1% w/v): 0% | mean % damage 1 daa Poa annua (Poa annua [2]; adjuvant 1.5% w/v): 0% | mean % damage 7 daa Poa annua (Poa annua [2]; adjuvant 1.5% w/v): 5% | mean % damage 14 daa Poa annua (Poa annua [2]; adjuvant 1.5% w/v): 0% | mean % damage 1 daa Poa annua (Poa annua [2]; adjuvant 2% w/v): 0% | mean % damage 7 daa Poa annua (Poa annua [2]; adjuvant 2% w/v): 5% | mean % damage 14 daa Poa annua (Poa annua [2]; adjuvant 2% w/v): 5% | mean % damage 1 daa Poa annua (Poa annua [2]; adjuvant 2.5% w/v): 0% | mean % damage 7 daa Poa annua (Poa annua [2]; adjuvant 2.5% w/v): 5% | mean % damage 14 daa Poa annua (Poa annua [2]; adjuvant 2.5% w/v): 5% | mean % damage 1 daa Trifolium repens (Trifolium repens; adjuvant 1% w/v): 0% | mean % damage 7 daa Trifolium repens (Trifolium repens; adjuvant 1% w/v): 5% | mean % damage 14 daa Trifolium repens (Trifolium repens; adjuvant 1% w/v): 0% | mean % damage 1 daa Trifolium repens (Trifolium repens; adjuvant 1.5% w/v): 0% | mean % damage 7 daa Trifolium repens (Trifolium repens; adjuvant 1.5% w/v): 5% | mean % damage 14 daa Trifolium repens (Trifolium repens; adjuvant 1.5% w/v): 0% | mean % damage 1 daa Trifolium repens (Trifolium repens; adjuvant 2% w/v): 0% | mean % damage 7 daa Trifolium repens (Trifolium repens; adjuvant 2% w/v): 5% | mean % damage 14 daa Trifolium repens (Trifolium repens; adjuvant 2% w/v): 0% | mean % damage 1 daa Trifolium repens (Trifolium repens; adjuvant 2.5% w/v): 0% | mean % damage 7 daa Trifolium repens (Trifolium repens; adjuvant 2.5% w/v): 5% | mean % damage 14 daa Trifolium repens (Trifolium repens; adjuvant 2.5% w/v): 0% | mean % damage 1 daa Veronica persica (Veronica persica; adjuvant 1% w/v): 0% | mean % damage 7 daa Veronica persica (Veronica persica; adjuvant 1% w/v): 5% | mean % damage 14 daa Veronica persica (Veronica persica; adjuvant 1% w/v): 5% | mean % damage 1 daa Veronica persica (Veronica persica; adjuvant 1.5% w/v): 0% | mean % damage 7 daa Veronica persica (Veronica persica; adjuvant 1.5% w/v): 10% | mean % damage 14 daa Veronica persica (Veronica persica; adjuvant 1.5% w/v): 20% | mean % damage 1 daa Veronica persica (Veronica persica; adjuvant 2% w/v): 0% | mean % damage 7 daa Veronica persica (Veronica persica; adjuvant 2% w/v): 10% | mean % damage 14 daa Veronica persica (Veronica persica; adjuvant 2% w/v): 20% | mean % damage 1 daa Veronica persica (Veronica persica; adjuvant 2.5% w/v): 0% | mean % damage 7 daa Veronica persica (Veronica persica; adjuvant 2.5% w/v): 20% | mean % damage 14 daa Veronica persica (Veronica persica; adjuvant 2.5% w/v): 20% | avg % damage 1 DAA Taraxacum officinale (Taraxacum officinale; adjuvant 1.25% w/v): 10% | avg % damage 6 DAA Taraxacum officinale (Taraxacum officinale; adjuvant 1.25% w/v): 0% | avg % damage 1 DAA Taraxacum officinale (Taraxacum officinale; adjuvant 2.5% w/v): 10% | avg % damage 6 DAA Taraxacum officinale (Taraxacum officinale; adjuvant 2.5% w/v): 3% | avg % damage 1 DAA Taraxacum officinale (Taraxacum officinale; adjuvant 5% w/v): 10% | avg % damage 6 DAA Taraxacum officinale (Taraxacum officinale; adjuvant 5% w/v): 20% | avg % damage 1 DAA Taraxacum officinale (Taraxacum officinale; adjuvant 10% w/v): 10% | avg % damage 6 DAA Taraxacum officinale (Taraxacum officinale; adjuvant 10% w/v): 0% | avg % damage 1 DAA Stellaria media (Stellaria media [3]; adjuvant 1.25% w/v): 0% | avg % damage 6 DAA Stellaria media (Stellaria media [3]; adjuvant 1.25% w/v): 0% | avg % damage 1 DAA Stellaria media (Stellaria media [3]; adjuvant 2.5% w/v): 10% | avg % damage 6 DAA Stellaria media (Stellaria media [3]; adjuvant 2.5% w/v): 15% | avg % damage 1 DAA Stellaria media (Stellaria media [3]; adjuvant 5% w/v): 15% | avg % damage 6 DAA Stellaria media (Stellaria media [3]; adjuvant 5% w/v): 25% | avg % damage 1 DAA Stellaria media (Stellaria media [3]; adjuvant 10% w/v): 30% | avg % damage 6 DAA Stellaria media (Stellaria media [3]; adjuvant 10% w/v): 25% | avg % damage 1 DAA Poa annua (Poa annua [4]; adjuvant 1.25% w/v): 0% | avg % damage 6 DAA Poa annua (Poa annua [4]; adjuvant 1.25% w/v): 5% | avg % damage 1 DAA Poa annua (Poa annua [4]; adjuvant 2.5% w/v): 0% | avg % damage 6 DAA Poa annua (Poa annua [4]; adjuvant 2.5% w/v): 5% | avg % damage 1 DAA Poa annua (Poa annua [4]; adjuvant 5% w/v): 0% | avg % damage 6 DAA Poa annua (Poa annua [4]; adjuvant 5% w/v): 10% | avg % damage 1 DAA Poa annua (Poa annua [4]; adjuvant 10% w/v): 0% | avg % damage 6 DAA Poa annua (Poa annua [4]; adjuvant 10% w/v): 10%

Oleyl alcohol polyglycol ether with 20 moles of ethoxylation [GenapolO200]
avg % damage 1 DAA Taraxacum officinale (Taraxacum officinale; adjuvant 1.25% w/v): 0% | avg % damage 6 DAA Taraxacum officinale (Taraxacum officinale; adjuvant 1.25% w/v): 3% | avg % damage 1 DAA Taraxacum officinale (Taraxacum officinale; adjuvant 2.5% w/v): 0% | avg % damage 6 DAA Taraxacum officinale (Taraxacum officinale; adjuvant 2.5% w/v): 0% | avg % damage 1 DAA Taraxacum officinale (Taraxacum officinale; adjuvant 5% w/v): 0% | avg % damage 6 DAA Taraxacum officinale (Taraxacum officinale; adjuvant 5% w/v): 5% | avg % damage 1 DAA Taraxacum officinale (Taraxacum officinale; adjuvant 10% w/v): 10% | avg % damage 6 DAA Taraxacum officinale (Taraxacum officinale; adjuvant 10% w/v): 0% | avg % damage 1 DAA Stellaria media (Stellaria media [3]; adjuvant 1.25% w/v): 0% | avg % damage 6 DAA Stellaria media (Stellaria media [3]; adjuvant 1.25% w/v): 0% | avg % damage 1 DAA Stellaria media (Stellaria media [3]; adjuvant 2.5% w/v): 0% | avg % damage 6 DAA Stellaria media (Stellaria media [3]; adjuvant 2.5% w/v): 5% | avg % damage 1 DAA Stellaria media (Stellaria media [3]; adjuvant 5% w/v): 0% | avg % damage 6 DAA Stellaria media (Stellaria media [3]; adjuvant 5% w/v): 5% | avg % damage 1 DAA Stellaria media (Stellaria media [3]; adjuvant 10% w/v): 15% | avg % damage 6 DAA Stellaria media (Stellaria media [3]; adjuvant 10% w/v): 30% | avg % damage 1 DAA Poa annua (Poa annua [4]; adjuvant 1.25% w/v): 0% | avg % damage 6 DAA Poa annua (Poa annua [4]; adjuvant 1.25% w/v): 0% | avg % damage 1 DAA Poa annua (Poa annua [4]; adjuvant 2.5% w/v): 0% | avg % damage 6 DAA Poa annua (Poa annua [4]; adjuvant 2.5% w/v): 0% | avg % damage 1 DAA Poa annua (Poa annua [4]; adjuvant 5% w/v): 0% | avg % damage 6 DAA Poa annua (Poa annua [4]; adjuvant 5% w/v): 0% | avg % damage 1 DAA Poa annua (Poa annua [4]; adjuvant 10% w/v): 0% | avg % damage 6 DAA Poa annua (Poa annua [4]; adjuvant 10% w/v): 0%

Tri-sec-butylphenol polyglycol ether with 6 Moles of ethoxylation [SAPOGENAT T 060]
avg % damage 1 DAA Taraxacum officinale (Taraxacum officinale; adjuvant 1.25% w/v): 0% | avg % damage 6 DAA Taraxacum officinale (Taraxacum officinale; adjuvant 1.25% w/v): 0% | avg % damage 1 DAA Taraxacum officinale (Taraxacum officinale; adjuvant 2.5% w/v): 0% | avg % damage 6 DAA Taraxacum officinale (Taraxacum officinale; adjuvant 2.5% w/v): 0% | avg % damage 1 DAA Taraxacum officinale (Taraxacum officinale; adjuvant 5% w/v): 0% | avg % damage 6 DAA Taraxacum officinale (Taraxacum officinale; adjuvant 5% w/v): 0% | avg % damage 1 DAA Taraxacum officinale (Taraxacum officinale; adjuvant 10% w/v): 0% | avg % damage 6 DAA Taraxacum officinale (Taraxacum officinale; adjuvant 10% w/v): 0% | avg % damage 1 DAA Stellaria media (Stellaria media [3]; adjuvant 1.25% w/v): 0% | avg % damage 6 DAA Stellaria media (Stellaria media [3]; adjuvant 1.25% w/v): 0% | avg % damage 1 DAA Stellaria media (Stellaria media [3]; adjuvant 2.5% w/v): 0% | avg % damage 6 DAA Stellaria media (Stellaria media [3]; adjuvant 2.5% w/v): 0% | avg % damage 1 DAA Stellaria media (Stellaria media [3]; adjuvant 5% w/v): 0% | avg % damage 6 DAA Stellaria media (Stellaria media [3]; adjuvant 5% w/v): 20% | avg % damage 1 DAA Stellaria media (Stellaria media [3]; adjuvant 10% w/v): 0% | avg % damage 6 DAA Stellaria media (Stellaria media [3]; adjuvant 10% w/v): 20% | avg % damage 1 DAA Poa annua (Poa annua [4]; adjuvant 1.25% w/v): 0% | avg % damage 6 DAA Poa annua (Poa annua [4]; adjuvant 1.25% w/v): 5% | avg % damage 1 DAA Poa annua (Poa annua [4]; adjuvant 2.5% w/v): 0% | avg % damage 6 DAA Poa annua (Poa annua [4]; adjuvant 2.5% w/v): 5% | avg % damage 1 DAA Poa annua (Poa annua [4]; adjuvant 5% w/v): 0% | avg % damage 6 DAA Poa annua (Poa annua [4]; adjuvant 5% w/v): 25% | avg % damage 1 DAA Poa annua (Poa annua [4]; adjuvant 10% w/v): 0% | avg % damage 6 DAA Poa annua (Poa annua [4]; adjuvant 10% w/v): 35%
